Experimental data: patent publication US20030232087A1, “Bioactive agent release coating with aromatic poly(meth)acrylates” (priority 2002, published 2003)

Columns and labels:
[1] = Bioactive Agent Release Assay, β-estradiol from coated stents; format: physicochemical; details: pEVA/pBMA 14/86% (w/w), coated at 0, 20, 30 or 40% relative humidity at 22° C.; PBS, 37° C.; FIG. 3
Procedure: A polymer coating solution containing poly(ethylene-co-vinylacetate) with a vinyl acetate concentration of 33% (w/w) and poly(n-butyl methacrylate) was prepared in 5 tetrahydrofuran at a polymer ratio of 14/86% (w/w), respectively. β-estradiol was added to the polymer coating solution after dissolution of the polymer in order to provide a coating composition of Applicant's above-captioned copending application in the form a one part system The bioactive agent/polymer ratio of the β-estradiol containing polymer solution was 30/70% (w/w) at a concentration of 10 mg/ml.
Eighteen-millimeter long, electropolished stainless steel stents with a 2 mm outer diameter were fabricated (Laserage Technology Corporation, Waukegan Ill.). […]
(§1) A suitable Bioactive Agent Release Assay, as described herein, can be used to determine the extent and rate of bioactive agent release under physiological conditions. In general it is desirable that less that 50% of the total quantity of the bioactive agent be released in the first 24 hours. It is frequently desirable for quantities of bioactive agent to be released for a duration of at least 30 days.
Except as otherwise provided herein, each coated stent was placed in an amber vial with 1.6 mls of PBS. […] The concentration of β-estradiol in each PBS sample was determined using UV spectroscopy.

[2] = Bioactive Agent Release Assay, dextran-TRITC from coated discs with polymer topcoat; format: physicochemical; details: pEVA (33% vinyl acetate)/pBMA topcoat coated at 48% relative humidity compared with 10% relative humidity; PBS, 37° C.; FIG. 2
Procedure: Two solutions were prepared in order to provide a coating composition of Applicant's copending application in the form of a two part system. The first solution was an aqueous solution containing the bioactive agent, dextran-TRITC, at a concentration of 15 mg/ml. The second solution contained poly(ethylene-co-vinylacetate) with a vinyl acetate concentration of 33% (w/w) and poly(n-butyl methacrylate), with approximate weight average molecular weight of 337 kilodaltons. The poly(n-butyl methacrylate) and poly(ethylene-co-vinylacetate) were purified by extraction with organic solvents to remove impurities, e.g., monomer residues. The polymers of the second solution were dissolved in tetrahydrofuran at a concentration of 10 mg/ml. […]
as §1, with “as describe” for “as described”, “less than” for “less that”
Except as otherwise provided herein, each coated disc was placed in an amber vial with 4 mls of PBS. […] The concentration of bioactive agent in each PBS sample was determined using UV spectroscopy. […]

Molecule | β-estradiol rate of release from coating [1] | release rate of bioactive agent from composite coating [2]
C[C@]12CC[C@@H]3c4ccc(O)cc4CC[C@H]3[C@@H]1CC[C@@H]2O [β-estradiol] | different humidity level conditions can be used to control the β-estradiol rate of release | 
tetramethylrhodamine isothiocyanate-Dextran [dextran-TRITC] |  | faster rate
